9 molecules from ChEMBL document CHEMBL2046439, “Spectaflavoside A, a new potent iron chelating dimeric flavonol glycoside from the rhizomes of Zingiber spectabile Griff” (Bioorg Med Chem Lett, 2012) can be followed below.

Where a name gives a salt, the structure may show the parent alone. Some results are limits rather than exact numbers.

A short description of assay [1]: Fe2+ chelating activity of the compound incubated for 5 mins prior to ferrozine-addition measured after 10 mins by spectrophotometry. The assay is classed as functional. The arrangement: concentration or dose not given beside the values.
Assay [2] relates to A549. As to the kind of experiment: Antiproliferative activity against human A549 cells after 48 hrs by MTS assay. The assay is classed as functional, cell-based. The conditions noted are these: A549, 48 h. A general note: Formazan colour is commonly taken as a measure of viable cells.
For assay [3], the system named is DU-145. As to the kind of experiment: Antiproliferative activity against human DU145 cells after 48 hrs by MTS assay. The assay is classed as functional, cell-based. The conditions noted are these: DU-145, 48 h.
The test system of assay [4] is SK-MEL-5. As to the kind of experiment: Antiproliferative activity against human SK-MEL-5 cells after 48 hrs by MTS assay. The format is functional, cell-based. The following applies: SK-MEL-5, 48 h.
The subject of assay [5] is BXPC-3. Briefly: Antiproliferative activity against human BxPC3 cells after 48 hrs by MTS assay. The format is functional, cell-based. The conditions noted are these: BXPC-3, 48 h.
The subject of assay [6] is HepG2. As to the kind of experiment: Antiproliferative activity against human HepG2 cells after 48 hrs by MTS assay. The assay is classed as functional, cell-based. The following applies: HepG2, 48 h.
The test system of assay [7] is HT-29. As to the kind of experiment: Antiproliferative activity against human HT-29 cells after 48 hrs by MTS assay. The conditions noted are these: HT-29, 48 h. The assay is classed as functional, cell-based.
Assay [8] relates to MCF7. Briefly: Antiproliferative activity against human MCF7 cells after 48 hrs by MTS assay. The following applies: MCF7, 48 h. The assay is classed as functional, cell-based.
Assay [9] deals with MDA-MB-231. Briefly: Antiproliferative activity against human MDA-MB-231 cells after 48 hrs by MTS assay. The assay is classed as functional, cell-based. The conditions noted are these: MDA-MB-231, 48 h.

In assay [1], `O=c1c(O)c(-c2ccc(O)cc2)oc2cc(O)cc(O)c12` yielded an Activity of 12.1%.
In [1], `CC(=O)O[C@@H]1[C@@H](O)[C@H](C)O[C@@H](Oc2c(-c3ccc(O)cc3)oc3cc(O)cc(O)c3c2=O)[C@@H]1OC(C)=O` showed an Activity of 52.2%.
For orientation: IC50 means the concentration that gives 50% inhibition. Consider `CC(=O)O[C@@H]1[C@@H](O)[C@@H](O)[C@H](Oc2c(-c3ccc(O)cc3)oc3cc(O)cc(O)c3c2=O)O[C@H]1C`, for which the concentration for half-maximal inhibition (IC50) in [2], in [3], in assay [4], in assay [5], in assay [6] and in [7] was above 150 µM each time. Moreover, the IC50 in [8] and in assay [9] was above 150 µM each time. This molecule gave an Activity in assay [1] of 29.1%.
With `CC(=O)O[C@@H]1[C@@H](OC(C)=O)[C@@H](O)[C@H](Oc2c(-c3ccc(O)cc3)oc3cc(O)cc(O)c3c2=O)O[C@H]1C`, in assay [1], the Activity was 55.4%.
The same measure, in the same setting: under `CC(=O)O[C@@H]1[C@@H](O)[C@@H](O)[C@H](Oc2c(-c3ccc(O)cc3)oc3cc(O)c(-c4c(O)cc(O)c5c(=O)c(O[C@@H]6O[C@@H](C)[C@H](OC(C)=O)[C@@H](O)[C@H]6O)c(-c6ccc(O)cc6)oc45)c(O)c3c2=O)O[C@H]1C` stands 87.4%.
With `CC[C@]1(O)C[C@@H]2CN(CCc3c([nH]c4ccccc34)[C@@](C(=O)OC)(c3cc4c(cc3OC)N(C)[C@H]3[C@@](O)(C(=O)OC)[C@H](OC(C)=O)[C@]5(CC)C=CCN6CC[C@]43[C@@H]65)C2)C1` [VINBLASTINE SULFATE], the IC50 in assay [2] was 2.36 µM; in assay [3], 4.25 µM; in assay [4], 1.74 µM; in [5], 1.13 µM; in [6], 0.16 µM; in assay [7], 11.2 µM. Also, the values for the IC50 in assay [8] and in assay [9] were 24.1 µM and 31.5 µM, respectively.
Consider `COc1cc(/C=C/C(=O)CC(=O)/C=C/c2ccc(O)c(OC)c2)ccc1O` [CURCUMIN], for which the IC50 stood at 62.6 µM in [2]; 38.2 µM in assay [3]; 50.4 µM in assay [4]; 11.4 µM in [5]; 59.4 µM in assay [6]; 15.9 µM in [7]. Besides, the IC50 in assay [8] was 65.2 µM; in assay [9], 64.7 µM. The Activity in [1] is 37.9%.
In the case of `COc1cc(/C=C/C(O)=C/C(=O)/C=C/c2ccc(O)cc2)ccc1O` [DEMETHOXYCURCUMIN], the concentration for half-maximal inhibition (IC50) in assay [2] was 74.1 µM; in assay [3], 48.1 µM; in assay [4] it was 61.4 µM; in assay [5], 24.1 µM; in assay [6], 80 µM; in assay [7] it was 19.4 µM. The results for the concentration for half-maximal inhibition (IC50) in [8] and in assay [9] were 75.3 µM and 87.5 µM, respectively. In addition, the Activity in [1] was 50.9%.
For `CC(=O)O[C@@H]1[C@@H](O)[C@@H](OC(C)=O)[C@H](Oc2c(-c3ccc(O)cc3)oc3cc(O)cc(O)c3c2=O)O[C@H]1C`, the IC50 in assay [2] was above 150 µM; in [3], above 150 µM; in [4], above 150 µM; in assay [5], 113 µM; in assay [6] it was above 150 µM; in assay [7], above 150 µM. Besides, the IC50 in assay [8] and in [9] was above 150 µM in each case. Further, in assay [1], the Activity stood at 49.1%.
